# Patent publication US6673770B1, “Peptides for the treatment, prophylaxis, diagnosis and monitoring of autoimmune diseases” (Upither B.V., priority 1998, dated 2004)
# Read-outs that look alike come from different tables or passages of the source. Ends that are not written are not given here. Peptide text beside a SMILES is read from it.
# T1: MHC class II RT1.B^L (Rattus norvegicus, UniProt P20037+P29826)
# T1 sequence (P20037 24-256): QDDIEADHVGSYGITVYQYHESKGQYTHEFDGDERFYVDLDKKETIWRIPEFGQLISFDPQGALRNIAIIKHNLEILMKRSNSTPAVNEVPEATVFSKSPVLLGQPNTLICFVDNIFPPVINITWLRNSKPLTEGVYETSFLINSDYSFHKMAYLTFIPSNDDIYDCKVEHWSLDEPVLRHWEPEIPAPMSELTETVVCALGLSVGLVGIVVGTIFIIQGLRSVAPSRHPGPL
# T1 sequence (P29826 28-263): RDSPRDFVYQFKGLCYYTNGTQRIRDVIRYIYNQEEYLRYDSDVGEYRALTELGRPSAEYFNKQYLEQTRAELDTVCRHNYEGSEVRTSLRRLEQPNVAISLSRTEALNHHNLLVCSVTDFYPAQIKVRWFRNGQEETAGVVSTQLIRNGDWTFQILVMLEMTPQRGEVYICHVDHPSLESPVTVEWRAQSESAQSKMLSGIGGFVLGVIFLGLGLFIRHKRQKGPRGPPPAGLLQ
# T2: DRB1*0401 molecules, detergent solubilised (human), P01903
# T2 chain 1: not shown
# T2 chain 2: not shown
# Key:
# DRB1*0401 = DRB1*0401 (Homo sapiens, UniProt P01903+P01911, A100K/A169T/F76Y/I96L/K127E/L162R/M171V/N62H/P40V/Q125Y/R42H/S133A/S149N/S66Y/V115G/V209L/W38E); test: MHC-peptide competition binding assay on isolated DRB1*0401 molecules
# Experimental: T-cell responses to the selected peptides in patients are analysed by studying T-cell proliferation of peripheral blood lymphocytes (PBL) and synovial fluid derived cells. […] In these human studies the peptides are tested as 15-mers containing the 9-mer sequence of Table 2 as core sequence. […] The MHC binding affinity of the selected peptides is analysed for the most-common MHC class II-arthritis associations. […] The peptide binding affinity is tested in a MHC-peptide competition assay on isolated MHC molecules in the presence of a labelled marker peptide.
# # MHC-peptide binding was measured as described in Wauben et al., Int. Immunol. […] Peptide binding is expressed as tire IC50.
# MHC class II RT1.B^L = target: T1, MHC class II RT1.B^L; test: MHC-peptide competition binding assay on isolated RT1.B^L molecules; parameters: species or system Lewis rat
# Text: Because the rat self-antigen to which the A2b T-clone is reactive is not known at present time, the present inventors have designed a computer search strategy based on the interactions of the mycobacterial hsp65 178-186 peptide within the trimolecular complex of MHC class II (RT1.B^L)-mycobacterial hsp65 178-186-T-cell receptor of clone A2b, to identify relevant candidate arthritis-associated antigens that can serve as target for autoimmune T-cell mediated tissue destruction in arthritis. Within the mycobacterial hsp65 178-186 sequence, residues involved in MHC binding have been identified by using an MHC-peptide binding assay on isolated MHC class II RT1.B^L proteins. The residues which have an important role in determining the RT1.B^L binding affinity of the mycobacterial hsp65 178-186 peptide, the so-called MHC anchor residues were determined. By studying the MHC-peptide binding affinities of other non-related peptides, a general MHC-peptide binding motif for the Lewis rat RT1.B1 molecule was defined (Wauben et al., Int. Immunol. 9:281 (1997)). For the definition of residues within the minimal core sequence mycobacterial hsp65 180-186, interacting with the T-cell receptor of the A2b T cell clone, the results derived from MHC-peptide binding assays, and proliferation assays of the A2b T cell clone were integrated.
# #RT1.B^L binding affinity is expressed as 50%ID (=inhibitory dose). The 50%ID value indicates the concentration of peptide needed to inhibit 50% binding of the marker peptide in a competition assay on isolated RT1.B^L molecules.
# [1] = test system: peripheral blood lymphocytes (PBL) of RA/JCA patients; test: 6-days proliferation assay on PBLs of RA and JCA patients; type: cell-based, human; details: number of patients with PBL proliferation >2 times background; 15-mers at 1 μg/ml and 10 μ/ml
# Experimental: T-cell responses to the selected peptides in patients are analysed by studying T-cell proliferation of peripheral blood lymphocytes (PBL) and synovial fluid derived cells. […] In these human studies the peptides are tested as 15-mers containing the 9-mer sequence of Table 2 as core sequence. […] This is further strengthened by the fact that, the patients were not selected for having a certain MHC haplotype. The MHC binding affinity of the selected peptides is analysed for the most-common MHC class II-arthritis associations. In Table 3 the peptide binding affinity for DRB1*0401 is shown as an example. The peptide binding affinity is tested in a MHC-peptide competition assay on isolated MHC molecules in the presence of a labelled marker peptide. The fact that of the n=12 peptides selected for binding to the rat DQ equivalent RT1.B^1, n=11 peptides also bind DRB1*0401, further confirms the promiscuous MHC binding of the selected peptides. This ensures a wide applicability of the peptides for prophylaxis, treatment, monitoring and/or diagnosis of the disease.
# ^ Indicated are the numbers of patients responding to tire peptides as defined in a 6-days proliferation assay on PBLs. Responses were considered positive if the proliferation (as measured by ^3H-thymidine incorporation) was >2 times background proliferation. Peptides were tested in concentrations of 1 μg/ml and 10 μ/ml.
# DTH reaction = test: Delayed type hypersensitivity reaction after peptide/DDA immunisation; type: in vivo, rats; details: challenge day 72, peptide/saline s.c. in ear; measured 24 and 48 hr
# Experimental: # DTH (Delayed type hypersensitivity) reactions are induced at day 72 after immunisation of peptide/DDA, by subcutaneous injection of the peptide/saline in the ear. DTH are measured 24 and 48 hr after challenge.
# arthritis = test: Arthritis induction by immunisation with peptide in DDA adjuvant; type: in vivo; details: rats with clinical arthritis/rats immunised; 50 μg peptide in 100 μl DDA, one hind footpad
# Experimental: To check the arthritogenic potential of the selected peptides, rats are immunised with 50 μg peptide in 100 μl DDA adjuvant in one hind footpad. […] Two of the five peptides show defined clinical arthritis. * Arthritis is induced by Immunisation of 50 μg peptide in 100 μl DDA adjuvants in one hind footpad and scored upon clinical examination.
# [2] = test system: T cells from inguinal and popliteal lymph nodes and spleen; test: T-cell recognition (proliferation) during adjuvant arthritis time course; type: cell-based, Lewis rats; details: positive: proliferation more than 1.5 times background in more than 25% of organs; days 14, 19, 21, 32, 39
# adjuvant arthritis = test: Nasal peptide administration in the adjuvant arthritis model; type: in vivo, rats; details: 100 μg peptide nasal at days 0, 3, 7, 11, mean±sd, n=4 rats; for Arthritis score: scale 0-16
# Experimental: The potential arthritis protective qualities of selected peptides/proteins are tested through nasal or oral tolerance induction in the adjuvant arthritis model.
# * Adjuvant arthritis is induced at day 0 by immunisation of MT/IFA (5 mg/ml MT) at the base of the tail. At days 0, 3, 7 and 11, 100 μg peptide in 10 μl saline is administered in the nostrils. Arthritis is scored upon clinical examination on a scale from 0-16. Data are expressed as mean±sd (n=4 rats/group).
# [3] = target: T2, DRB1*0401 molecules, detergent …; test: competition assay on detergent solubilised DRB1*0401 (1 µM) with biotinylated HA-marker peptide (100 nM)
# [4] = DRB1*0401 1 μM, biotinylated HA-marker peptide 100 nM, peptide 0-256 μM, read-out: DRB1*0401 binding (IC50)
molecule,measurement,setting,value
"CC(C)C[C@H](NC(=O)[C@H](CCC(=O)O)NC(=O)[C@H](CC(=O)O)NC(=O)[C@@H](NC(=O)[C@@H]1CCCN1C(=O)[C@@H](NC(=O)CNC(=O)[C@H](CO)NC(=O)CNC(=O)CNC(=O)[C@@H](N)CC(C)C)[C@@H](C)O)C(C)C)C(=O)N[C@@H](CC(=O)O)C(=O)N[C@@H](CCCCN)C(=O)N[C@@H](CS)C(=O)N[C@@H](CS)C(=O)O [SEQ ID NO: 79, LGGSGTPVDELDKCC] (H-LGGSGTPVDELDKCC-OH)",IC50,DRB1*0401; [4],128 to 256 µM
"AFGLQLELT [SEQ ID NO: 4, AFGLQLELT]",IC50,MHC class II RT1.B^L,64 to 128 µM
"EDLVGSASGDLDLGK [SEQ ID NO: 75, EDLVGSASGDLDLGK]",IC50,DRB1*0401; [4],32 to 64 µM
"FFYFFTGSSQLEFDP [SEQ ID NO: 70, FFYFFTGSSQLEFDP]",JCA patients responding (n = 6 tested),[1],2
same,RA patients responding (n = 39 tested),[1],29^
same,IC50,DRB1*0401; [4],< 8 µM
"MTSLKSVNGQIESLI [SEQ ID NO: 78, MTSLKSVNGQIESLI]",IC50,DRB1*0401; [4],64 to 128 µM
"NAMLKSICEVLDLER [SEQ ID NO: 81, NAMLKSICEVLDLER]",JCA patients responding (n = 6 tested),[1],1
same,RA patients responding (n = 39 tested),[1],2
same,IC50,DRB1*0401; [4],> 256 µM
"QGTIDTAVLHLDTNL [SEQ ID NO: 72, QGTIDTAVLHLDTNL]",IC50,DRB1*0401,8 to 16 µM
"QLLGVSASVPVEHRD [SEQ ID NO: 76, QLLGVSASVPVEHRD]",IC50,DRB1*0401; [4],32 to 64 µM
"QPLVQTAVTNIDRPK [SEQ ID NO: 77, QPLVQTAVTNIDRPK]",IC50,DRB1*0401; [4],32 to 64 µM
"SAFWPSLPSYLDAAY [SEQ ID NO: 71, SAFWPSLPSYLDAAY]",RA patients responding (n = 39 tested),[1],4
same,IC50,DRB1*0401; [4],8 to 16 µM
"SSFWPSLPSGVDAAY [SEQ ID NO: 73, SSFWPSLPSGVDAAY]",RA patients responding (n = 39 tested),[1],4
same,IC50,DRB1*0401; [4],16 to 32 µM
"SYRLRSPVISIDPPS [SEQ ID NO: 74, SYRLRSPVISIDPPS]",IC50,DRB1*0401; [4],16 to 32 µM
"TAGLQLELT [SEQ ID NO: 5, TAGLQLELT]",IC50,MHC class II RT1.B^L,64 to 128 µM
"TFALQLELT [SEQ ID NO: 6, TFALQLELT]",IC50,MHC class II RT1.B^L,32 to 64 µM
"TFGAQLELT [SEQ ID NO: 7, TFGAQLELT]",IC50,MHC class II RT1.B^L,8 to 16 µM
"TFGLALELT [SEQ ID NO: 8, TFGLALELT]",IC50,MHC class II RT1.B^L,> 256 µM
"TFGLQAELT [SEQ ID NO: 9, TFGLQAELT]",IC50,MHC class II RT1.B^L,32 to 64 µM
"TFGLQLALT [SEQ ID NO: 10, TFGLQLALT]",IC50,MHC class II RT1.B^L,128 to 256 µM
"TFGLQLEAT [SEQ ID NO: 11, TFGLQLEAT]",IC50,MHC class II RT1.B^L,32 to 64 µM
"TFGLQLELA [SEQ ID NO: 12, TFGLQLELA]",IC50,MHC class II RT1.B^L,32 to 64 µM
"TFGLQLELT [SEQ ID NO: 3, TFGLQLELT, reference compound]",IC50,MHC class II RT1.B^L,32 to 64 µM
"TTTVSSFSLNVEYAI [SEQ ID NO: 80, TTTVSSFSLNVEYAI]",IC50,DRB1*0401; [4],128 to 256 µM
VQTAVTNID (listed as Rattus sp.) [SEQ ID NO: 53],DTH reaction,DTH reaction,2/2
same,Arthritis Induction,arthritis,0/4
same,T-cell recognition during adjuvant arthritis,[2],positive
WPSLPSGLD (listed as Rattus sp.) [SEQ ID NO: 50],DTH reaction,DTH reaction,0/2
same,Arthritis Induction,arthritis,2/4
same,T-cell recognition during adjuvant arthritis,[2],positive
same,Day of onset,adjuvant arthritis,14.3 ± 2.0
same,Arthritis score,adjuvant arthritis,11.3 ± 3.8
WPSLPSNMD (listed as Rattus sp.) [SEQ ID NO: 48],DTH reaction,DTH reaction,0/2
same,Arthritis Induction,arthritis,1/4
same,Day of onset,adjuvant arthritis,13.3 ± 1.0
same,Arthritis score,adjuvant arthritis,10.5 ± 1.7
SAFWPSLPSYLDAAY (modifications not checked) [MMP-10: …],IC50,[3],8 to 16 µM
EDLVGSASGDLDLGK (modifications not checked) [Aggrecan (1): …],IC50,[3],32 to 64 µM
LGGSGTPVDELDKCC (not fully specified; cysteine pairing not given here) [Phospholipase A2: …],IC50,[3],128 to 256 µM
MTSLKSVNGQIESLI (modifications not checked) [(Pro)collagen α1(III): …],IC50,[3],64 to 128 µM
SSFWPSLPSGVDAAY (modifications not checked) [MMP-3 (1): …],IC50,[3],16 to 32 µM
QPLVQTAVTNIDRPK (modifications not checked) [Fibronectin: …],IC50,[3],32 to 64 µM
SYRLRSPVISIDPPS (modifications not checked) [Perlecan: …],IC50,[3],16 to 32 µM
TTTVSSFSLNVEYAI (modifications not checked) [Versican: …],IC50,[3],128 to 256 µM
FFYFFTGSSQLEFDP (modifications not checked) [MMP-3 (2): …],IC50,[3],8 µM
QLLGVSASVPVEHRD (modifications not checked) [Chondroitin sulf.(1): …],IC50,[3],32 to 64 µM
QGTIDTAVLHLDTNL (modifications not checked) [Chondroitin sulf.(4): …],IC50,[3],8 to 16 µM
